From ChEMBL document CHEMBL1201862, “PubChem BioAssay data set” (2004)
The source made the active and inactive calls. No stated cut-off is given here; in the data, actives have a measured IC50 and inactives only a lower limit.

Molecular target: Envelope glycoprotein gp160 (Human immunodeficiency virus 1, UniProt Q6QLK5)
Experiment: cell-free HIV fusion peptide-binding blockers – biochemical, uHTS, fluorescence dequenching, […] (AID 1986)

Chain of Envelope glycoprotein gp160 (Q6QLK5 whole entry, the tested form may be a part): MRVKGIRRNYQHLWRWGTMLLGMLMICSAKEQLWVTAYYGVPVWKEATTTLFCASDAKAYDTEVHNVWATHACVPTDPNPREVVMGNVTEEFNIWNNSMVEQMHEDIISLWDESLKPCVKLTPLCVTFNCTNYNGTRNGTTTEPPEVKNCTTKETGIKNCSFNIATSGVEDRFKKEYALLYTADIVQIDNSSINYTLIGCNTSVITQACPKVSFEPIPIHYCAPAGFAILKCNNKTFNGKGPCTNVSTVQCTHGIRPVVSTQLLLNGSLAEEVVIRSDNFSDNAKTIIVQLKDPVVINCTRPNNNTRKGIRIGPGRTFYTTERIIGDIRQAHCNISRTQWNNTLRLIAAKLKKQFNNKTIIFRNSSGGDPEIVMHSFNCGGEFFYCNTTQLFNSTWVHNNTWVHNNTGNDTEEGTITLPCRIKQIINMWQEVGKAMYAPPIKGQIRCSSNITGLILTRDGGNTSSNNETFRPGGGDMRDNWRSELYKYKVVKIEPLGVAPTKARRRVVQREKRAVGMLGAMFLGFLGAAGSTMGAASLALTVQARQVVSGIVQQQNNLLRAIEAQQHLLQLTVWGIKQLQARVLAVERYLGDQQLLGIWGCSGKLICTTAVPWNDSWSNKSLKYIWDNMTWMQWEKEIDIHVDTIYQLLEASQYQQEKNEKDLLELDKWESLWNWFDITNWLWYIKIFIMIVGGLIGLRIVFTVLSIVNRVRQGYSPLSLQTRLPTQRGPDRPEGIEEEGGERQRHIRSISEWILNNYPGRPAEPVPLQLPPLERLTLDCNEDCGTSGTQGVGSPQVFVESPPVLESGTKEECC

## COc1cc(/C=C2\SC(=O)N(c3ccccc3Cl)C2=O)cc([N+](=O)[O-])c1O
  IC50: 24.7 µM (active)
